# Data: patent publication US7053043B1, “Pharmaceutical compositions comprising synthetic peptide copolymers and methods for preventing and treating GVHD and HVGD” (Yeda Research and Development Co.Ltd., priority 1999, dated 2006)
# What was measured:
# [1] = test system: function of transplanted thyroids; assay: Thyroid graft assay for HVGD (125I absorption of thyroid transplanted in kidney capsule); type: in vivo, mice
# Procedure: In this transplantation model for HVGD, thyroid glands from donor mice were transplanted in the kidney's capsules of recipient mice. One week later the transplanted mice were injected with ^125I, and the radioactivity of each kidney (the recipient or the untransplanted kidney) was measured after 20 hours. Δcpm was calculated by subtracting the ^125I absorbance of the untransplanted kidneys from the ^125I absorbance of the recipient kidneys in the same treatment. The mean function index (MFI) for treatment was calculated by dividing the mean Δcpm for the tested (Copolymer 1) treatment by the mean Δcpm for the PBS treatment. P values were obtained by the t test. This assay indicates objectively and quantitatively not only the graft survival, but also the function (iodine absorbance) of the transplanted thyroid tissue (Isakov et al., 1979).
# The transplanted mice were treated daily with Copolymer 1 600 μg/day (300 μg ip+300 μg sc) in PBS solution, starting 7 days before transplantation. The first Cop 1 treatment on day −7 was injected sc in ICFA as a depot dose. Control mice were treated daily with PBS alone and PBS with ICFA on day −7 before transplantation.
# To test the effect of Copolymer 1 treatment on the function of transplanted thyroids in the B10.D2→BALB/c model, thyroid glands from donors B10.D2 were transplanted in the kidney's capsules of BALB/c mice. After one week the transplanted mice were injected with ^125I, and the radioactivity of each kidney was measured 20 hours later. cpm was calculated by subtracting the ^125I absorbance of the untransplanted kidneys from the ^125I absorbance of the recipient kidneys in the same treatment. The mean function index (MFI) for each treatment was calculated by dividing the mean ^125I absorbance of (transplanted kidney-untransplanted kidney) in the tested treatment by the mean ^125I absorbance of (transplanted kidney-untransplanted kidney) in the PBS treatment, as follows: […]
# [2] = test system: proliferation of B10.PL (H-2u) responder cells to BALB/c stimulator cells; assay: Mixed lymphocyte reaction (MLR) across major histocompatibility barriers, B10.PL vs BALB/c; type: cell-based, mice; conditions: 20 μg/well, Cop 1 Batch I, 1:1 ratio of responder to stimulator cells
# Procedure: (§1) Responder cells for MLR reactions across major histocompatibility barriers were harvested from spleen of non-immunized mice while responder cells for MLR across minor histocompatibility barriers were harvested from mice which were preimmunized with irradiated (30 Gy) 50×10^6 stimulator spleen cells 21 days before. Responder cells (5×10^5 spleen cells per well) were tested for their proliferative response by plating with different amounts (2.5 to 10×10^5) of irradiated stimulator cells, in presence or absence of various peptide inhibitors (10–100 μg per well). Cultures were set up in 200 μl media containing 10% FCS in flat-bottom microtiter plates. After 4 days of incubation, cultures were pulsed with 1 μCi of [^3H]thymidine for an additional 16 hours. Results are represented as mean counts per minute (cpm) thymidine incorporation from triplicate cultures.
# To investigate the feasibility of inhibition of MLR by Copolymer 1, an MLR system was developed in which Copolymer 1 was tested for its ability to inhibit the proliferation of B10.PL (H-2^u) responder cells to stimulator cells of either the same (PL/J) or different (BALB/c) H-2 haplotype. For comparison, the inhibitory MBP Ac 1-11[4A], MBP 35-47, a combination of Ac 1-1[4A]+MBP 35-47, MBP 89-101 and KM-core peptides, described in Schlegel et al. (1994), were used in the MLR experiments.
# The inhibition obtained by Copolymer 1 was similar (in response to minor histocompatibility antigen) or even higher (in response to major histocompatibility antigen) than the inhibition obtained with the combination of the two synthetic peptides Ac 1-11[4A] and MBP 35-47, which specifically bind to the class II molecules I-A^u and the I-E^u, respectively. The molar efficiency of Copolymer 1 of M.W. 6000 is even higher since the molecular weight of the synthetic peptides is 4–5 fold lower.
# [3] = test system: B10.D2 responder T cells with APC presenting BALB/c mH antigens; assay: Proliferative responses to minor H antigens in vitro, Cop 1 present in the assay; type: cell-based, mice; conditions: for cpm (Cop 1 Assay Concentration): Resp. + APC
# Procedure: B10.D2 mice were injected ip. with irradiated (20 Gy) BALB/c spleen cells 72 hours prior to the assay. B10.D2 spleen cells were harvested, depleted of red blood cells (RBC) and used as irradiated (10 Gy) antigen-presenting cells (APC) presenting BALB/c mH antigens. For the primary assay, APC were plated at 2.5×10^5 cells per well in 96-well round-bottom plates and incubated with 2.5×10^5 nylon-wool-enriched responder T cells (>88% CD3^+ by FACS […]). After 96 hours of incubation, cells were pulsed with 1 μCi [^3H]-thymidine for an additional 16 hours before harvesting. In the secondary assay, irradiated APC were plated at 2.5×10^5 cells/well in 96-well round-bottom plates, preincubated for 24 hours at 37° C. with increasing concentrations of GLAT (2.5–80 μg/well) or with medium alone, and thereafter washed three times before the addition of 2.5×10^5 nylon-wool-enriched responder T cells from naive B10.D2 mice. Culture medium was RPMI 1640, supplemented with 10% pre-screened fetal calf serum, 2 mM glutamine, 50 μM 2-mercaptoethanol, 100 U/ml penicillin, and 100 μg/ml streptomycin.
# B10.D2 mice were injected ip with irradiated (20 Gy) BALB/c spleen cells 72 hours prior to the assay. B10.D2 spleen cells were harvested, depleted of RBC and used as irradiated (10 Gy) APC presenting BALB/c mH antigens. APC were plated at 2.5×10^5 cells/well in 96-well round-bottom plates and incubated with 2.5×10^5 nylon-wool-enriched responder T cells (>88% CD3^+ by FACS analysis) from naive B10.D2 mice in the presence or absence of increasing concentrations of Copolymer 1 (Batch I) (2.5–80 μg/well). After 96 hours of incubation, cells were pulsed with 1 μCi [^3H]-thymidine for an additional 16 hours before harvesting. […] Maximum inhibition was 100% at a concentration of 80 μg/well.
# [4] = test system: T cell proliferation in MHC-disparate mixed lymphocyte cultures; assay: Mixed lymphocyte cultures across major histocompatibility barriers, six MHC-disparate strain combinations; type: cell-based, mice
# Procedure: as §1
# [5] = B10.D2 → BALB, H-2d, another experiment (N 5), Cop 1 600 μg/day
# [6] = B10.D2 → BALB/c, H-2d, Cop 1 600 μg, N 10
# [7] = B10PL → PL/J, H-2d, Cop 1 600 μg/day
# [8] = C57BL → BALB, H-2b → H-2d, Cop 1 600 μg/day
# [9] = C57BL → C3H, H-2b, Cop 1 600 μg/day
substance,measurement,setting,value
Glatiramer acetate [Cop 1],"Mean 125I Absorption, Transplanted Kidney (cpm)",[1]; [5],1035 cpm
same,"Mean 125I Absorption, Untransplanted Kidney (cpm)",[1]; [5],137 cpm
same,cpm (transplanted minus untransplanted kidney),[1]; [5],898 cpm
same,"Mean 125I Absorption, Transplanted Kidney (cpm)",[1]; [6],2901 cpm
same,"Mean 125I Absorption, Untransplanted Kidney (cpm)",[1]; [6],450 cpm
same,cpm (transplanted minus untransplanted kidney),[1]; [6],2451 cpm
same,"Mean 125I Absorption, Transplanted Kidney (cpm)",[1]; [7],2009 cpm
same,"Mean 125I Absorption, Untransplanted Kidney (cpm)",[1]; [7],332 cpm
same,cpm (transplanted minus untransplanted kidney),[1]; [7],1677 cpm
same,"Mean 125I Absorption, Transplanted Kidney (cpm)",[1]; [8],10759 cpm
same,"Mean 125I Absorption, Untransplanted Kidney (cpm)",[1]; [8],924 cpm
same,cpm (transplanted minus untransplanted kidney),[1]; [8],9835 cpm
same,"Mean 125I Absorption, Transplanted Kidney (cpm)",[1]; [9],1643 cpm
same,"Mean 125I Absorption, Untransplanted Kidney (cpm)",[1]; [9],281 cpm
same,cpm (transplanted minus untransplanted kidney),[1]; [9],1362 cpm
same,MFI (mean function index),"[1]; folds over PBS treatment, B10.D2 → BALB, H-2d, another experiment (N 5), Cop 1 600 μg/day",5.2
same,MFI (mean function index),"[1]; folds over PBS treatment, B10.D2 → BALB/c, H-2d, Cop 1 600 μg, N 10",3.2
same,MFI (mean function index),"[1]; relative to PBS treatment, B10PL → PL/J, H-2d, Cop 1 600 μg/day",2.5
same,MFI (mean function index),"[1]; relative to PBS treatment, C57BL → BALB, H-2b → H-2d, Cop 1 600 μg/day",3.0
same,MFI (mean function index),"[1]; relative to PBS treatment, C57BL → C3H, H-2b, Cop 1 600 μg/day",2.3
same,inhibition of MLR,[2],77%
same,Maximum inhibition of proliferative responses to mH antigens,[3]; 80 μg/well,100%
same,cpm (Cop 1 Assay Concentration),[3]; Cop 1 1.5 μg,"124,904 cpm"
same,cpm (Cop 1 Assay Concentration),[3]; Cop 1 5 μg,"126,405 cpm"
same,cpm (Cop 1 Assay Concentration),[3]; Cop 1 10 μg,"119,866 cpm"
same,cpm (Cop 1 Assay Concentration),[3]; Cop 1 20 μg,"75,840 cpm"
same,cpm (Cop 1 Assay Concentration),[3]; Cop 1 40 μg,"23,591 cpm"
same,cpm (Cop 1 Assay Concentration),[3]; Cop 1 80 μg,361 cpm
same,inhibitory effect on the MLC,"[4]; 10–100 μg/well, all concentrations tested",dose-dependent inhibition
same,concentration sufficient to achieve 50% inhibition of the proliferative responses,[4]; Batch I,10–25 μg/well
same,Maximum inhibition,[4]; all strain combinations tested,100%
